In patent US20210379046A1, “Methods of Treating Diseases Using Kinase Modulators” (Memorial Sloan Kettering Cancer Center, priority 2018, published 2021):
Entries after “also recorded” stand apart in the source; their conditions may differ.

How the values were obtained:
Human T cells = experiment: IFN-gamma ELISpot of peptide stimulated T cells; format: cell-based; conditions: T cells of HLA-A*02:01 positive healthy donors, autologous CD14+ cells presenting peptide
From the text: Peripheral blood mononuclear cells were again derived from healthy donors after receiving informed consent (see above). T cells were isolated by Ficoll density centrifugation and stimulated with pools of peptides that were selected from the population of: (1) new peptides that appeared after RET inhibitor treatment, (2) peptides found on cells before RET inhibitor treatment, and (3) irrelevant peptides not found on the target cells. CD14^+ cells were isolated from PBMCs by negative immunomagnetic cell separation using an isolation kit (Miltenyi Biotec). CD14 cells were used for stimulation in week one and autologous dendritic cells were generated for use thereafter. The purity of the cells was always more than 98%. Monocyte-derived dendritic cells (DCs) were generated from CD14+ cells, by culturing the cells in RPMI 1640 medium supplemented with 1% AP, 500 units/mL recombinant IL-4, and 1,000 units/mL GM-CSF. On days 2 and 4 of the incubation, fresh medium with IL-4 and GM-CSF was either added or replaced half of the culture medium. On day 6, maturation cytokine cocktail was added (IL-4, GM-CSF, 500 IU/mL IL-1, 1,000 IU/mL IL-6, 10 ng/ml TNF-α, and 1 ug/mL PGE-2).
An interferon-gamma ELISpot was performed at the beginning of week three. For this HA-Multiscreen plates (Millipore) were coated with 100 uL of mouse anti-human IFN-gamma antibody (10 ug/mL; clone 1-D1K, Mabtech #3420-2A) in PBS, incubated overnight at 4° C., washed with PBS to remove unbound antibody, and blocked with RPMI 1640/10% autologous plasma (AP) for 2 h at 37° C. Purified CD3^+ T cells (>98% pure) were plated with either autologous CD14^+ (10:1 E:APC ratio) or autologous DCs (30:1 E:APC ratio), Various test peptides were added to the wells at 20 ug/mL. Negative control wells contained. APCs and T cells without peptides or with irrelevant peptides. Positive control wells contained T cells plus APCs plus 20 ug/mL phytohemagglutinin (PHA, Sigma). All conditions were done in triplicates. Microtiter plates were incubated for 20 h at 37° C. and then extensively washed with PBS/0.05% Tween and 100 uL/well biotinylated detection antibody against human IFN-γ (2 ug/mL; clone 7-B6-1; Mabtech) was added. Plates were incubated for an additional 2 h at 37° C. and spot development was done as described. Spot numbers were read and determined by Zellnet Consulting In. T cell killing of target cells was measured at week five as described in the section of ADCC above.

TT cells = experiment: Flow cytometry of cell surface HLA on TT cells; format: cell-based, human; conditions: 72 hrs
Description: (§1) If adherent cells, they were seeded one day before treatment.

LC-2/ad cells = experiment: Flow cytometry of cell surface HLA on LC-2/ad cells; format: cell-based, human; conditions: 72 hrs
Description: as §1

[1] = test system: JAK signaling (pSTAT1) in Karpas299 and TPC1 cells; experiment: IFN-γ stimulation and ruxolitinib control in Karpas299 and TPC1 cells; format: cell-based, human
Description: Cells were harvested and stained with anti-HLA-A02 antibody (BB7-FITC) for flow cytometry. […] (B) Karpas299 and TPC1 cells were treated with DMSO, IFN-γ, or IFN-γ and RUX for 72 hours.
Supernatant media were harvested after treatment and analyzed by the Luminex device (Luminex Corporation, Austin, Tex.) for relevant cytokine secretion. […] On the left side of each panel is data after 24 hours. On the right side of each panel is data after 48 hours. […] The data points shown in this figure are in pairs for each condition. The data point pairs for each time point are, from left to right: DMSO, Rux, Alec, IFNg, and IFNg+Rux.

SKOV3 cells = experiment: Surface HLA on SKOV3 cells; format: cell-based, human
Description: as §1
Experiments in this Example were performed as described in Section 6.1.2.

Karpas 299 cells = experiment: Flow cytometry of cell surface HLA and checkpoint ligands on Karpas 299 cells; format: cell-based, human; conditions: for cell surface HLA-A,B,C: Karpas 299, 72 hrs, increasing concentrations
Description: as §1

SUDHL-1 cells = experiment: Flow cytometry of cell surface HLA on SUDHL-1 cells; format: cell-based, human; conditions: SUDHL-1, 72 hrs, increasing concentrations
Description: as §1

pERK in Karpas 299 cells = experiment: Western blot of pERK in Karpas 299 cells; format: cell-based, human; conditions: Karpas 299, 3 hrs
Description: (§2) Cells were seeded in a 60 mm dish or 6 well plates. After the appropriate time point, cells were harvested and lysed and protein was quantified by a Lowry assay (Bio-Rad DC Protein Assay; #5000116). Protein levels were normalized and run on SDS PAGE gels (Bio-Rad). Protein was transferred to a nitrocellulose membrane using semi-dry transfer. Membrane was blocked and incubated with respective antibodies. When needed, secondary antibodies with HRP were incubated for 1 hr.
(§3) Cells were seeded in a 60 mm dish or 6 well plates. After the appropriate time point, cells were harvested, lysed in RIPA buffer (Thermo Instruments) and protein concentration was quantified by a Lowry assay (using the Bio-Rad DC Protein Assay; #5000116 on a Spectramax device from Molecular Devices). Protein loading levels were equalized per lane and separated on SDS gels (Bio-Rad). Protein was transferred to a nitrocellulose membrance using semi-dry transfer (BioRad). Membranes were blocked with Omniblock (American Bio) and incubated with respected antibodies. When needed, secondary antibodies with HRP were incubated for 1 hr.

pERK in SUDHL-1 cells = experiment: Western blot of pERK in SUDHL-1 cells; format: cell-based, human; conditions: SUDHL-1, 3 hrs
Description: as §2, §3

pERK in H2228 cells = experiment: Western blot of pERK in H2228 cells; format: cell-based, human; conditions: H2228, 100 nM
Description: as §2, §3

Karpas 299 tumors = experiment: Karpas 299 subcutaneous tumors in mice, tumor HLA and PD-L1 by flow cytometry; format: in vivo; conditions: Karpas 299 tumors, daily oral gavage
Description: Female NSG (NOD.Cg-Prkdc^scidIl2rg^tm1Wj1/SzJ) and NRG (NOD.Cg-Rag1^tm1MomIl2rg^tm1Wj1/SzJ) mice were purchased from the Jackson Laboratory or MSKCC breeding facility at 5-10 weeks old. For RET and ALK experiments, 2.5-6×10^6 tumor cells were subcutaneously injected into the flank of mice and when tumors were palpable, mice were treated daily with drug or vehicles through oral gavage. At day 7, tumors were harvested and flow cytometry was run to determine effect of inhibitors on HLA and PD-L1 on the tumor cells.
The highly immunodeficient NRG (NOD-Rag1null IL2rgnull) mice were subcutaneously injected with 2.5×10^6 luciferase tagged TPC1 cells in their right flank. […] Afterwards, cells were immediately harvested and stained with antibodies against HLA-A*02:01 and HLA-ABC.
All animal experiments were conducted in accordance with and the approval of the MSKCC IACUC (Institutional Animal Care and Use Committee) protocols. Female NSG (NOD. Cg-Prkdc^scidIl2rg^tm1Wj1/SzJ) and NRG (NOD.Cg-Rag1^tm1MomIl2rg^tm1Wj1/SzJ) mice were purchased from the Jackson Laboratory at 5-10 weeks old. For experiments in vivo with RET and ALK, 2.5-6×10^6 tumor cells in PBS were subcutaneously injected into the flank of mice. When tumors were palpable (2-3 mm), mice were treated daily with drugs or vehicles through oral gavage of drugs in 200 ul of water. At day 4 or 7, tumors were harvested and flow cytometry was conducted to determine the effect of inhibitors on HLA and PD-L1 on the tumor cells. […] TPC1 cells were transduced with luciferase and GFP on an SFG vector and this allowed gating of the tumor cells in flow cytometry.

[2] = test system: HLA-A, beta-2-microglobulin, TAP1, TAP2 in Karpas 299 and SUDHL-1 cells; experiment: Western blot and qPCR of HLA and antigen processing machinery in ALCL lines; format: cell-based, human; conditions: for HLA and antigen processing machinery transcript levels (qPCR): Karpas 299 and SUDHL-1, 48 hrs
Description: as §2, §3
Data were normalized to baseline expression of each analyzed gene separately.

TPC1 cells = experiment: ADCC chromium-51 release assay with ESK1 and human PBMCs on inhibitor-pretreated TPC1 cells; format: cell-based; conditions: TPC1 pretreated 72 hrs with 100 nM trametinib, at 3 or 4 E:T ratios
Description: Peripheral blood mononuclear cells were derived from healthy donors by Ficoll density centrifugation after receiving informed consent on Memorial Sloan Kettering Institutional Review board-approved protocols. TPC1 cells treated with RET inhibitor drugs and DMSO control were labeled with chromium-51 and co-cultured with PBMCs and ESK (or its isotype control, hIgG1). Different E:T ratios were used and after 5 hrs of incubation at 37° C., the supernatant was harvested and chromium levels were measured by Chromium-51 release assay (Perkin Elmer). Higher chromium levels indicated higher levels of cytotoxicity.
After the addition of ESK and peripheral blood mononuclear cells for 5 hrs, chromium release was measured.
For each experiment reported, fresh peripheral blood mononuclear cells were derived from a healthy donor by Ficoll density centrifugation after receiving informed consent on Memorial Sloan Kettering Institutional Review Board-approved protocols. […] Cells were then labeled with 1 uCi/well chromium-51 for 1 hr at 37° C. […] Different effector:target ratios were used and after 5 hrs of incubation at 37° C., the supernatant was harvested and chromium levels were measured through standard chromium-51 release assay on a Top Count machine (Perkin Elmer).

[3] = test system: Karpas 299 and SUDHL-1 cells; experiment: Sensitivity of ALCL cells to ALK inhibitors; format: cell-based, human

TYLEKAIKI (control peptide) [TYLEKAIKI (SEQ ID NO:6), control peptide found before drug treatment on TPC1 cells]
T cell mediated IFN gamma response (ELISpot) (Human T cells): No response

ILQAHLHSL (control peptide) [ILQAHLHSL (SEQ ID NO:8), control peptide found before drug treatment on TPC1 cells]
T cell mediated IFN gamma response (ELISpot) (Human T cells): No response

COc1cc2ncnc(Oc3cccc(NC(=O)Nc4cc(C(C)(C)C(F)(F)F)on4)c3)c2cc1OC [CEP-32496]
surface HLA (TT cells): minimal effects on HLA upregulation; also recorded: Small changes in cell surface HLA | surface HLA (LC-2/ad cells): minimal effects on HLA upregulation; also recorded: Small changes in cell surface HLA

ILDKKVEKV (control peptide) [ILDKKVEKV (SEQ ID NO:7), control peptide found before drug treatment on TPC1 cells]
T cell mediated IFN gamma response (ELISpot) (Human T cells): No response

IFNγ: interferon gamma used as positive control
phosphorylated STAT1 (pSTAT1) ([1]; Karpas299 and TPC1, IFN-γ or IFN-γ and RUX, 72 hours): upregulated in both cell lines | IL4 and IL6 secretion ([1]; Karpas299 and TPC1, IFNγ 100 ng/ml, ruxolitinib 1000 nm): increased both IL4 and IL6

CS(=O)(=O)CCNCc1ccc(-c2ccc3ncnc(Nc4ccc(OCc5cccc(F)c5)c(Cl)c4)c3c2)o1 [lapatinib]
HLA upregulation (SKOV3 cells): upregulated HLA

C[C@@H](Oc1cc(-c2cnn(C3CCNCC3)c2)cnc1N)c1c(Cl)ccc(F)c1Cl [crizotinib]
surface HLA-E levels (Karpas 299 cells; Karpas 299): did not change | HLA levels increase compared to control cells treated with DMSO (Karpas 299 cells; Karpas 299, 1 uM, 72 hour incubation): 4 fold | cell surface HLA-A,B,C (Karpas 299 cells): increased levels of surface HLA-A,B,C; also recorded: increased levels of surface HLA class I complexes; also recorded: increases in cell surface HLA | cell surface HLA-A,B,C (SUDHL-1 cells): increased surface HLA in a dose-related manner; also recorded: increases in cell surface HLA | pERK levels (pERK in Karpas 299 cells): dose-related reduction of pERK at 3 hours; also recorded: dose-related, reduction of pERK at 3 hours | pERK levels (pERK in SUDHL-1 cells): inhibited pERK expression | pERK levels (pERK in H2228 cells): did not change pERK levels | pERK levels (pERK in H2228 cells; listed as Crizotinib): does not decrease pERK levels | tumor PD-L1 levels in vivo (Karpas 299 tumors): PD-L1 levels decreased with increasing doses; also recorded: PD-L1 levels decreased in vivo | tumor cell surface HLA-A,B,C in vivo (Karpas 299 tumors): increased slightly in a dose-response manner, though not all mice responded; also recorded: increased modestly in a dose-dependent manner | HLA and antigen processing machinery transcript levels (qPCR) [2]: showed increases in HLA and antigen processing machinery transcript levels

CC(=O)Nc1cccc(-n2c(=O)n(C3CC3)c(=O)c3c(Nc4ccc(I)cc4F)n(C)c(=O)c(C)c32)c1 [trametinib]
improved lysis by ESK1 (TPC1 cells): about 10%

GRKPPLLKK (irrelevant peptide) [GRKPPLLKK (SEQ ID NO:9), irrelevant peptide, negative control]
T cell mediated IFN gamma response (ELISpot) (Human T cells): No response

Cc1cc(Nc2ncc(Cl)c(Nc3ccccc3S(=O)(=O)C(C)C)n2)c(OC(C)C)cc1C1CCNCC1 [ceritinib]
cell surface HLA-A,B,C (Karpas 299 cells): cell surface HLA increased in both cell lines in a dose-dependent manner | cell surface HLA-A,B,C (SUDHL-1 cells): cell surface HLA increased in both cell lines in a dose-dependent manner | pERK levels (pERK in Karpas 299 cells): shut down pERK levels | pERK levels (pERK in SUDHL-1 cells): shut down pERK levels | pERK levels (pERK in H2228 cells): slightly decreased pERK levels | pERK levels (pERK in H2228 cells; listed as Ceritinib): minimal changes in pERK levels; also recorded: decreased pERK levels very slightly | HLA and antigen processing machinery transcript levels (qPCR) [2]: Increase in RNA levels of HLA and antigen processing machinery | HLA-A and beta-2-microglobulin protein levels (western blot) ([2]; Karpas 299 and SUDHL-1, 72 hrs): show increase in HLA-A and beta-2-microglobulin | sensitivity of cells to ceritinib compared with crizotinib [3]: more sensitive to ceritinib than crizotinib, and died at lower concentrations
